Where two headings read alike, the source gives them in different places.
Tests used:
Format in all cases: biochemical
[1] = target: T1, MMP-1 (Homo sapiens, UniProt P03956); assay: MMP-1 inhibition (thiopeptide or fluorescent peptide substrate assay)
T1 sequence (P03956 100-469): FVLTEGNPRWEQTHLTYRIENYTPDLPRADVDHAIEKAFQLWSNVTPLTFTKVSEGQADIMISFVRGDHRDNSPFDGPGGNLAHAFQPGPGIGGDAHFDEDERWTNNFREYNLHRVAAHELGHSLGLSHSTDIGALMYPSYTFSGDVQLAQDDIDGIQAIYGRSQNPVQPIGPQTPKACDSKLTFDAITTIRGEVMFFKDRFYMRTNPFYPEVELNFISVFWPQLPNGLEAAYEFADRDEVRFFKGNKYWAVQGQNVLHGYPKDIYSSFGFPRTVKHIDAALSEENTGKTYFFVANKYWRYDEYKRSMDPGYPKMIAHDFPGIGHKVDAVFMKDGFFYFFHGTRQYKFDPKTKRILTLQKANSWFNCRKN
Method: The enzyme activity is measured by the rate of the color increase. The thiopeptide substrate is made up fresh as a 20 mM stock in 100% DMSO and the DTNB is dissolved in 100% DMSO as a 100 mM stock and stored in the dark at room temperature. Both the substrate and DTNB are diluted together to 1 mM with substrate buffer (50 mM HEPES pH 7.5, 5 mM CaCl2) before use. The stock of enzyme is diluted with assay buffer (50 mM HEPES, pH 7.5, 5 mM CaCl2, 0.02% Brij) to the desired final concentration.
Alternatively, a fluorescent peptide substrate is used. In this assay, the peptide substrate contains a fluorescent group and a quenching group. Upon cleavage of the substrate by an MMP, the fluorescence that is generated is quantitated on the fluorescence plate reader. The assay is run in HCBC assay buffer (50mM HEPES, pH 7.0, 5 mM Ca^+2, 0.02% Brij, 0.5% Cysteine), with human recombinant MMP-1, MMP-9, or MMP-13. The substrate is dissolved in methanol and stored frozen in 1 mM aliquots. For the assay, substrate and enzymes are diluted in HCBC buffer to the desired concentrations. Compounds are added to the 96 well plate containing enzyme and the reaction is started by the addition of substrate.
For either the thiopeptide or fluorescent peptide assays, the slope of the line is calculated and represents the reaction rate. The linearity of the reaction rate is confirmed (r^2 >0.85). The mean (x±sem) of the control rate is calculated and compared for statistical significance (p<0.05) with drug-treated rates using Dunnett's multiple comparison test.

[2] = target: MMP-9 (Homo sapiens, UniProt P14780); assay: MMP-9 inhibition (thiopeptide or fluorescent peptide substrate assay)
Method: (§1) The enzyme activity is measured by the rate of the color increase. The thiopeptide substrate is made up fresh as a 20 mM stock in 100% DMSO and the DTNB is dissolved in 100% DMSO as a 100 mM stock and stored in the dark at room temperature. Both the substrate and DTNB are diluted together to 1 mM with substrate buffer (50 mM HEPES pH 7.5, 5 mM CaCl2) before use. […] Alternatively, a fluorescent peptide substrate is used. In this assay, the peptide substrate contains a fluorescent group and a quenching group. Upon cleavage of the substrate by an MMP, the fluorescence that is generated is quantitated on the fluorescence plate reader. […] The substrate is dissolved in methanol and stored frozen in 1 mM aliquots. For the assay, substrate and enzymes are diluted in HCBC buffer to the desired concentrations. Compounds are added to the 96 well plate containing enzyme and the reaction is started by the addition of substrate. […] For either the thiopeptide or fluorescent peptide assays, the slope of the line is calculated and represents the reaction rate. […] The mean (x±sem) of the control rate is calculated and compared for statistical significance (p<0.05) with drug-treated rates using Dunnett's multiple comparison test.

[3] = target: MMP-13 (Homo sapiens, UniProt P45452); assay: MMP-13 inhibition (thiopeptide or fluorescent peptide substrate assay)
Method: as §1

[4] = target: TACE (Homo sapiens, UniProt P78536); assay: TACE inhibition (fluorescent peptidyl substrate); conditions: for inhibition at 1 µM: at 1µM concentration
Chain of TACE (P78536 215-824): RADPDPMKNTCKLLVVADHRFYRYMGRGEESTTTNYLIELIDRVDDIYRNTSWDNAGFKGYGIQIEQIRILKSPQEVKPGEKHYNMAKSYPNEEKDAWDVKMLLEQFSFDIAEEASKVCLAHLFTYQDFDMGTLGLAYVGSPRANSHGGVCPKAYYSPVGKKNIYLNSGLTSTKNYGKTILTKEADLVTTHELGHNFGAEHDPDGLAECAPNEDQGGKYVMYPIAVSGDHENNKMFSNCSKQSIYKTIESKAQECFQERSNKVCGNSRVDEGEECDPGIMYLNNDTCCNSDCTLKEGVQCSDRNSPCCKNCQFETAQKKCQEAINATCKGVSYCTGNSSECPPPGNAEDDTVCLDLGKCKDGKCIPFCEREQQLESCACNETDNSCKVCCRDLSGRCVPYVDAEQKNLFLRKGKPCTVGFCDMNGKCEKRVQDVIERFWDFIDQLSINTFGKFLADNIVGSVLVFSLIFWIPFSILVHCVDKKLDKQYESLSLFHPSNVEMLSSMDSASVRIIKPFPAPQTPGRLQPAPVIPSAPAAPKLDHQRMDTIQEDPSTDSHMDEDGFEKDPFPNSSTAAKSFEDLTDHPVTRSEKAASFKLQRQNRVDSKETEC
Method: Using 96-well black microtiter plates, each well receives a solution composed of 10 µL TACE (Immunex, final concentration 1µg/mL), 70µL Tris buffer, pH 7.4 containing 10% glycerol (final concentration 10 mM), and 10 µL of test compound solution in DMSO (final concentration 1µM, DMSO concentration <1%) and incubated for 10 minutes at room temperature.
The reaction is read (excitation 340 nm, emission 420 nm) for 10 min. and the increase in fluorescence over time is plotted as a linear line. The slope of the line is calculated and represents the reaction rate.
The linearity of the reaction rate is confirmed (r^2 >0.85). The mean (x±sem) of the control rate is calculated and compared for statistical significance (p<0.05) with drug-treated rates using Dunnett's multiple comparison test.

Chain of MMP-9 (P14780 94-707): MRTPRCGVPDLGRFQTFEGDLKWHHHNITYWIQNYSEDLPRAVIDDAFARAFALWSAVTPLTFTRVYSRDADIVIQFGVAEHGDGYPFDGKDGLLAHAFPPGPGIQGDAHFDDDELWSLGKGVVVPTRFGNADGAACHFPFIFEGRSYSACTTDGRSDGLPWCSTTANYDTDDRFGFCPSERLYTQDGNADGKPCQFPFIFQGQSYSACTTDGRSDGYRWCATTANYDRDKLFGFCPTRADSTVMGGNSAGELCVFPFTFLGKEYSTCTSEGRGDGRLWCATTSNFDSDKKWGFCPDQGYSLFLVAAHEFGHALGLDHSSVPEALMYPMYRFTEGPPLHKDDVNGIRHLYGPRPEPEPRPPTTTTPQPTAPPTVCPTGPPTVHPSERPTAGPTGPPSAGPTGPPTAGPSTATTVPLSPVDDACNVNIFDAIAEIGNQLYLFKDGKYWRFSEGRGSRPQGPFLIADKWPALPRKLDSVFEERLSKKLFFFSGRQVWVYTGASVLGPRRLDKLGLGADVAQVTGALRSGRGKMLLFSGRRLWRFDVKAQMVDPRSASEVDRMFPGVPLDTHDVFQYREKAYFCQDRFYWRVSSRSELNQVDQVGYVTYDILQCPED

COc1ccc(S(=O)(=O)N(Cc2ccccc2)c2c(OC(C)(C)C(=O)NO)cccc2C(=O)NO)cc1 [Example 197]
IC50 ([1]; read-out: MMP-1 IC50): 711 nM | IC50 ([2]; read-out: MMP-9 IC50): 5 nM | IC50 ([3]; read-out: MMP-13 IC50): 6 nM | inhibition at 1 µM [4]: 32%

COc1ccc(S(=O)(=O)N(Cc2ccccc2)c2c(Br)cccc2C(=O)NO)cc1 [Example 201, 3-Bromo-2-[benzyl-(4-methoxybenzenesulfonyl)amino]-N-hydroxy-benzamide]
IC50 ([1]; read-out: MMP-1 IC50): 104 nM | IC50 ([2]; read-out: MMP-9 IC50): 11 nM | IC50 ([3]; read-out: MMP-13 IC50): 27 nM | IC50 ([4]; read-out: TACE IC50): 1000 nM

CCCCCCCCN(C)C(=O)C=Cc1cc(C)c(N(C)S(=O)(=O)c2ccc(OC)cc2)c(C(=O)NO)c1 [Example 207, N-Hydroxy-2-[(4-methoxy-benzenesulfonyl)-methyl-amino]-3-methyl-5-[2-(methyl-octyl-carbamoyl)-vinyl]-benzamide]
IC50 ([1]; read-out: MMP-1 IC50): 1120 nM | IC50 ([2]; read-out: MMP-9 IC50): 2 nM | IC50 ([3]; read-out: MMP-13 IC50): 2.5 nM | IC50 ([4]; read-out: TACE IC50): 375 nM

CCCCCCCCN(C)C(=O)CCc1cc(C)c(N(C)S(=O)(=O)c2ccc(OC)cc2)c(C(=O)NO)c1 [Example 212, N-Hydroxy-2-[(4-methoxy-benzenesulfonyl)-methyl-amino]-3-methyl-5-[2-(methyl-octyl-carbamoyl)-ethyl]-benzamide]
IC50 ([1]; read-out: MMP-1 IC50): 415 nM | IC50 ([2]; read-out: MMP-9 IC50): 5.2 nM | IC50 ([3]; read-out: MMP-13 IC50): 11 nM | IC50 ([4]; read-out: TACE IC50): 314 nM

COc1ccc(S(=O)(=O)N(C)c2c(C)cc(C=CC(=O)N(C)C)cc2C(=O)O)cc1 [Example 214, 5-(2-Dimethylcarbamoyl-vinyl)-2-[(4-methoxy-benzenesulfonyl)-methyl-amino]-3-methyl-benzoic acid]
IC50 [1]: 423 nM | IC50 [2]: 6.4 nM | IC50 [3]: 19 nM | IC50 [4]: 232 nM

CCN(Cc1ccncc1)C(=O)C=Cc1cc(C)c(N(C)S(=O)(=O)c2ccc(OC)cc2)c(C(=O)NO)c1 [Example 219, 5-[2-(Ethyl-pyridin-4-ylmethyl-carbamoyl)-vinyl]-N-hydroxy-2-[(4-methoxy-benzenesulfonyl)-methyl-amino]-3-methyl-benzamide]
IC50 ([1]; read-out: MMP-1 IC50): 290 nM | IC50 ([2]; read-out: MMP-9 IC50): 6.7 nM | IC50 ([3]; read-out: MMP-13 IC50): 5.8 nM | IC50 ([4]; read-out: TACE IC50): 548 nM

CCCCCCCCN(C)C(=O)C=Cc1cc(C)c(N(Cc2cccnc2)S(=O)(=O)c2ccc(OC)cc2)c(C(=O)NO)c1 [Example 224, N-Hydroxy-2-[(4-methoxy-benzenesulfonyl)-pyridin-3-ylmethyl-amino]-3-methyl-5-[2-(methyl-octyl-carbamoyl)-vinyl]-benzamide]
IC50 ([1]; read-out: MMP-1 IC50): 957 nM | IC50 ([2]; read-out: MMP-9 IC50): 11 nM | IC50 ([3]; read-out: MMP-13 IC50): 14 nM | IC50 ([4]; read-out: TACE IC50): 715 nM

COc1ccc(S(=O)(=O)N(Cc2cccnc2)c2c(C)cc(C=CC(=O)N(C)C)cc2C(=O)NO)cc1 [Example 227, 5-(2-Dimethylcarbamoyl-vinyl)-N-hydroxy-2-[(4-methoxy-benzenesulfonyl)-pyridin-3-ylmethyl-amino]-3-methyl-benzamide]
IC50 ([1]; read-out: MMP-1 IC50): 193 nM | IC50 ([2]; read-out: MMP-9 IC50): 3.1 nM | IC50 ([3]; read-out: MMP-13 IC50): 4.1 nM | IC50 ([4]; read-out: TACE IC50): 446 nM

CCN(C(=O)C=Cc1cc(C)c(N(Cc2cccnc2)S(=O)(=O)c2ccc(OC)cc2)c(C(=O)NO)c1)c1ccccc1 [Example 230, 5-[2-(Ethyl-phenyl-carbamoyl)-vinyl]-N-hydroxy-2-[(4-methoxy-benzenesulfonyl)-pyridin-3-ylmethyl-amino]-3-methyl-benzamide]
IC50 ([1]; read-out: MMP-1 IC50): 20 nM | IC50 ([2]; read-out: MMP-9 IC50): 2.4 nM | IC50 ([3]; read-out: MMP-13 IC50): 1.9 nM | inhibition at 1 µM [4]: 47%

C=CCN(CC=C)C(=O)C=Cc1cc(C)c(N(Cc2cccnc2)S(=O)(=O)c2ccc(OC)cc2)c(C(=O)NO)c1 [Example 233, 5-(2-Diallylcarbamoyl-vinyl)-N-hydroxy-2-[(4-methoxy-benzenesulfonyl)-pyridin-3-ylmethyl-amino]-3-methyl-benzamide]
IC50 ([1]; read-out: MMP-1 IC50): 32 nM | IC50 ([2]; read-out: MMP-9 IC50): 2.3 nM | IC50 ([3]; read-out: MMP-13 IC50): 1.8 nM | IC50 ([4]; read-out: TACE IC50): 450 nM

COc1ccc(S(=O)(=O)N(Cc2cccnc2)c2c(C)cc(C=CC(=O)N3CCOCC3)cc2C(=O)NO)cc1 [Example 240]
IC50 ([1]; read-out: MMP-1 IC50): 86 nM | IC50 ([2]; read-out: MMP-9 IC50): 3.5 nM | IC50 ([3]; read-out: MMP-13 IC50): 1.6 nM | IC50 ([4]; read-out: TACE IC50): 548 nM

COc1ccc(S(=O)(=O)N(Cc2cccnc2)c2c(C)cc(-c3ccccc3C=NO)cc2C(=O)NO)cc1 [Example 243, 2'-(Hydroxyimino-methyl)-4-[(4-methoxy-benzenesulfonyl)-pyridin-3-ylmethyl-amino]-5-methyl-biphenyl-3-carboxylic acid hydroxyamide]
IC50 ([1]; read-out: MMP-1 IC50): 528 nM | IC50 ([2]; read-out: MMP-9 IC50): 6.6 nM | IC50 ([3]; read-out: MMP-13 IC50): 3.1 nM | IC50 ([4]; read-out: TACE IC50): 66 nM

COc1ccc(S(=O)(=O)N(Cc2cccnc2)c2c(C)cc(-c3cccc(C=NO)c3)cc2C(=O)NO)cc1 [Example 246, 3'-(Hydroxyimino-methyl)-4-[(4-methoxy-benzenesulfonyl)-pyridin-3-ylmethyl-amino]-5-methyl-biphenyl-3-carboxylic acid hydroxyamide]
IC50 ([1]; read-out: MMP-1 IC50): 106 nM | IC50 ([2]; read-out: MMP-9 IC50): 6 nM | IC50 ([3]; read-out: MMP-13 IC50): 3.6 nM | IC50 ([4]; read-out: TACE IC50): 56 nM

COc1ccc(S(=O)(=O)N(Cc2cccnc2)c2c(C)cc(-c3ccc(C=NO)cc3)cc2C(=O)NO)cc1 [Example 249, 4'-(Hydroxyimino-methyl)-4-[(4-methoxy-benzenesulfonyl)-pyridin-3-ylmethyl-amino]-5-methyl-biphenyl-3-carboxylic acid hydroxyamide]
IC50 ([1]; read-out: MMP-1 IC50): 231 nM | IC50 ([2]; read-out: MMP-9 IC50): 2.8 nM | IC50 ([3]; read-out: MMP-13 IC50): 6 nM | IC50 ([4]; read-out: TACE IC50): 100 nM

COc1ccc(S(=O)(=O)N(Cc2cccnc2)c2c(C)cc(-c3ccccc3C(F)(F)F)cc2C(=O)NO)cc1 [Example 252, 4-[(4-Methoxy-benzenesulfonyl)-pyridin-3-ylmethyl-amino]-5-methyl-2'-trifluoromethyl-biphenyl-3-carboxylic acid hydroxyamide]
IC50 ([1]; read-out: MMP-1 IC50): 652 nM | IC50 ([2]; read-out: MMP-9 IC50): 15 nM | IC50 ([3]; read-out: MMP-13 IC50): 10 nM | IC50 ([4]; read-out: TACE IC50): 346 nM

COc1ccc(S(=O)(=O)N(Cc2cccnc2)c2c(C)cc(-c3ccco3)cc2C(=O)NO)cc1 [Example 255, 5-Furan-2-yl-N-hydroxy-2-[(4-methoxy-benzenesulfonyl)-pyridin-3-ylmethyl-amino]-3-methyl-benzamide]
IC50 ([1]; read-out: MMP-1 IC50): 48 nM | IC50 ([2]; read-out: MMP-9 IC50): 7.1 nM | IC50 ([3]; read-out: MMP-13 IC50): 3.2 nM | IC50 ([4]; read-out: TACE IC50): 65 nM

COc1ccc(S(=O)(=O)N(Cc2cccnc2)c2c(C)cc(-c3sccc3C=NO)cc2C(=O)NO)cc1 [Example 258, N-Hydroxy-5-[3-(hydroxyimino-methyl)-thiophen-2-yl]-2-[(4-methoxy-benzenesulfonyl)-pyridin-3-ylmethyl-amino]-3-methyl-benzamide]
IC50 ([1]; read-out: MMP-1 IC50): 169 nM | IC50 ([2]; read-out: MMP-9 IC50): 8 nM | IC50 ([3]; read-out: MMP-13 IC50): 7 nM | IC50 ([4]; read-out: TACE IC50): 110 nM

COc1ccc(S(=O)(=O)N(Cc2cccnc2)c2c(C)cc(-c3ccc(Cl)s3)cc2C(=O)NO)cc1 [Example 261, 5-(5-Chloro-thiophen-2-yl)-N-hydroxy-2-[(4-methoxy-benzenesulfonyl)-pyridin-3-ylmethyl-amino]-3-methyl-benzamide]
IC50 ([1]; read-out: MMP-1 IC50): 247 nM | IC50 ([2]; read-out: MMP-9 IC50): 1.3 nM | IC50 ([3]; read-out: MMP-13 IC50): 2.8 nM | IC50 ([4]; read-out: TACE IC50): 54 nM

COc1ccc(S(=O)(=O)N(Cc2cccnc2)c2c(C)cc(-c3ccc(C(C)=O)s3)cc2C(=O)NO)cc1 [Example 264, 5-(5-Acetyl-thiophen-2-yl)-N-hydroxy-2-[(4-methoxy-benzenesulfonyl)-pyridin-3-ylmethyl-amino]-3-methyl-benzamide]
IC50 ([1]; read-out: MMP-1 IC50): 159 nM | IC50 ([2]; read-out: MMP-9 IC50): 3.7 nM | IC50 ([3]; read-out: MMP-13 IC50): 6.4 nM | IC50 ([4]; read-out: TACE IC50): 77 nM

C=Cc1cc(C)c(N(Cc2ccccc2)S(=O)(=O)c2ccc(OC)cc2)c(C(=O)NO)c1 [Example 267, 2-[Benzyl-(4-methoxy-benzenesulfonyl)-amino]-N-hydroxy-3-methyl-5-vinyl-benzamide]
IC50 ([1]; read-out: MMP-1 IC50): 59 nM | IC50 ([2]; read-out: MMP-9 IC50): 3 nM | IC50 ([3]; read-out: MMP-13 IC50): 13 nM | IC50 ([4]; read-out: TACE IC50): 136 nM

CCc1cc(C)c(N(Cc2cccnc2)S(=O)(=O)c2ccc(OC)cc2)c(C(=O)NO)c1 [Example 277, 5-Ethyl-N-hydroxy-2-[(4-methoxy-benzenesulfonyl)-pyridin-3-ylmethyl-amino]-3-methyl-benzamide]
IC50 ([1]; read-out: MMP-1 IC50): 56 nM | IC50 ([2]; read-out: MMP-9 IC50): 4 nM | IC50 ([3]; read-out: MMP-13 IC50): 4 nM | IC50 ([4]; read-out: TACE IC50): 34 nM

COc1ccc(S(=O)(=O)N(Cc2cccnc2)c2c(C)cc(-c3cccnc3)cc2C(=O)NO)cc1 [Example 285, N-Hydroxy-2-[(4-methoxy-benzenesulfonyl)-pyridin-3-ylmethyl-amino]-3-methyl-5-pyridin-3-yl-benzamide]
IC50 ([1]; read-out: MMP-1 IC50): 312 nM | IC50 ([2]; read-out: MMP-9 IC50): 6 nM | IC50 ([3]; read-out: MMP-13 IC50): 9.8 nM | IC50 ([4]; read-out: TACE IC50): 61 nM

COc1ccc(S(=O)(=O)N(Cc2ccccc2)c2c(C)ccc(C)c2C(=O)NO)cc1 [Example 292, 2-[Benzyl-(4-methoxy-benzenesulfonyl)-amino]-N-hydroxy-3,6-dimethyl-benzamide]
IC50 ([1]; read-out: MMP-1 IC50): 184 nM | IC50 ([2]; read-out: MMP-9 IC50): 8 nM | IC50 ([3]; read-out: MMP-13 IC50): 29 nM | inhibition at 1 µM [4]: 7%

COc1ccc(S(=O)(=O)N(Cc2cccnc2)c2c(C)ccc(C)c2C(=O)NO)cc1 [Example 297, N-Hydroxy-2-[(4-methoxy-benzenesulfonyl)-pyridin-3-ylmethyl-amino]-3,6-dimethyl-benzamide]
IC50 ([1]; read-out: MMP-1 IC50): 297 nM | IC50 ([2]; read-out: MMP-9 IC50): 9 nM | IC50 ([3]; read-out: MMP-13 IC50): 14 nM | inhibition at 1 µM [4]: 58%

COc1ccc(S(=O)(=O)N(Cc2cccnc2)c2c(C)cc(-c3cc(-c4ccc(C)o4)no3)cc2C(=O)NO)cc1 [Example 301, N-Hydroxy-2-[(4-methoxy-benzenesulfonyl)-pyridin-3-ylmethyl-amino]-3-methyl-5-[3-(5-methyl-furan-2-yl)-isoxazol-5-yl]-benzamide]
IC50 ([1]; read-out: MMP-1 IC50): 211 nM | IC50 ([2]; read-out: MMP-9 IC50): 6.9 nM | IC50 ([3]; read-out: MMP-13 IC50): 8.7 nM | IC50 ([4]; read-out: TACE IC50): 1480 nM

Source: patent EP0938471B1, “THE PREPARATION AND USE OF ORTHO-SULFONAMIDO ARYL HYDROXAMIC ACIDS AS MATRIX METALLOPROTEINASE AND TACE INHIBITORS” (priority 1996, dated 1998)
